Measurements as given in patent US20050239873A1 (priority 1999, published 2005).

How the values were obtained:
plasma proteins [1] = test: Binding to plasma proteins (ultrafiltration); assay type: in vitro ADME, rat; details: presence of NaF+EDTA, 1000 ng/ml
Stability in plasma [2] = assay type: in vitro ADME, dog; details: 37° C., 60 min; for stability: presence of NaF/EDTA
Method: (§1) For analysis of samples, two volumes of cold methanol-acetonitrile (50:50, v/v) were added to portions of plasma, culture medium, or cell extract. The preparations were mixed and then centrifuged to obtain clear supernatants, which were dried at room temperature by compressed air. The residues were dissolved in the mobile phase, and a portion was injected onto the HPLC column.
(§2) The HPLC equipment consisted of a Hewlett Packard 1050 ChemStation with a fluorescence detector (Agilent 100 series). […] The mobile phase was methanol:ammonium acetate buffer (87:13 v/v; 0.2 M; pH 5.8, adjusted with HCl). The flow rate was 1 ml/min. The column elute was monitored fluorometrically at an excitation wavelength of 232 nm and an emission wavelength of 418 nm. The amounts of test compounds present in samples were determined from the peak areas.
(§3) Samples of mouse, rat, dog, and human plasma were incubated at 37° C. with and without addition of NaF (2.5 mg/ml) and EDTA (1 mg/ml). To these preparations, 2-OMe antimycin A1, 2-OMe antimcyin A2, 2-OMe antimycin A3, or 2-OMe antimycin A5, dissolved in methanol, was added to final concentrations of 500 ng/ml. Portions of plasma, taken at selected times after addition of the 2-OMe antimycin analog, were extracted and analyzed.

plasma proteins [3] = test: Binding to plasma proteins (ultrafiltration); assay type: in vitro ADME, human; details: presence of NaF+EDTA, 1000 ng/ml
Method: (§4) Solutions of 2-OMe antimycin A3 were diluted with plasma (dog or human) containing NaF+EDTA to final concentrations of 1.0 or 0.2 μg/ml. Controls were diluted with water to the same final concentrations. These preparations were incubated at 37° C. for 20 min, at which time portions were taken and placed in the sample reservoirs of Amicon Centrifree® ultrafiltration systems (Millipore Co., Bedford, Mass.). At 37° C., the filter systems were centrifuged until the reservoirs were dry. From each filtrate, portions were taken for analysis by HPLC. The amounts present were designated as “free drug” (F). The concentrations of the unfiltered solutions were also determined by triplicate analyses. This amount represented the “total drug” concentration (T). The percentage of 2-OMe antimycin A3 bound to plasma proteins was calculated by the following formula: % bound=((T−F)/T)×100

plasma proteins [4] = test: Binding to plasma proteins (ultrafiltration); assay type: in vitro ADME, mouse; details: presence of NaF+EDTA, 1000 ng/ml
Method: as §4

plasma proteins [5] = test: Binding to plasma proteins (ultrafiltration); assay type: in vitro ADME, dog; details: presence of NaF+EDTA, 1000 ng/ml
Method: as §4
Similar experiments were performed for 2-OMe antimycin A3 in dog or rat plasma in the absence of NaF/EDTA.

Stability in plasma [6] = assay type: in vitro ADME, mouse; details: for stability: 37° C., 60 min
Method: as §1, §2, §3
(§5) Similarly, the stability of 2-OMe antimycin A1, 2-OMe antimycin A2, […] in the plasma from mice and humans was evaluated at −80° C. From these preparations, portions were analyzed immediately; other portions were stored at -80° C. and analyzed after 1, 2, and 4 weeks.

RPMI-8226 cells = test: GI50 assay (MTT); assay type: cell-based, human
Method: RPMI 8226 cells were grown in 96 well plates for 24 h prior to addition of 2-methoxy Antimycins. Antimycin stocks in DMSO were serially diluted in RPMI media. Cells were incubated for 48 h with compounds at final compound concentrations ranging from 10^−4 to 10^−8 M. MTT assays were performed in quadruplicate and percent growth inhibitions were calculated as (A570 (control cells)—A570 (treated cells))/A570 (control cells). The GI50 was extrapolated from semi-log plots of the dose response for each compound. […] After 72 h drug exposures, 1 μCi/ml [^3H]-thymidine was added to wells. Cells were incubated for an additional 24 h, and then transferred to GF/C filter plates (Packard) using a plate washer. Filters were dried, added to scintillant, and counted in a TopCount scintillation counter (Packard). Drug response was expressed as the percentage of vehicle-treated controls, and each value shown as the average of three determinations.

Stability in plasma [7] = assay type: in vitro ADME, human; details: for stability: 60 min
Method: as §1, §2, §3, §5

Stability in plasma [8] = assay type: in vitro ADME, rat; details: 37° C., 60 min, presence of NaF/EDTA
Method: as §1, §2, §3

Bcl-xL(ΔC) WT = target: T1, Bcl-xL(ΔC) WT (Homo sapiens, UniProt Q07817); test: Pore-forming activity, calcein release from liposomes; assay type: biochemical
T1 construct: inferred from Ni-NTA purification and the pET22b(+) NdeI/XhoI cloning); made in house; host or cells: Escherichia coli BL21(DE3) carrying pUB520
Method: Large unilamellar vesicles composed of 60% dioleoylphophatidylcholine and 40% dioleoylphosphatidylglycerol were prepared by the extrusion method of Mayer et al., supra. Lipid stocks, in chloroform, were mixed and dried under a stream of nitrogen gas. The lipid was resuspended by vortexing for 30 min in a solution of 40 mM calcein (Molecular Probes), 25 mM KCl, and 10 mM KOAc, pH 5.0. After 10 freeze-thaw cycles, the lipid suspension was extruded through two 0.1 μm pore diameter Nucleopore filters. Non-entrapped dye was removed by passage over a Sephadex G10 column (Amersham Biosciences). Lipid concentration was measured using the ammonium ferrothiocyanate method (Stewart, Anal. Biochem. 104:10-14, 1980).
For pore assays, recombinant truncated Bcl-2 family protein or mutant protein (Bcl-xL(ΔC)) (500 nM) was added to large unilamellar vesicles (60 μM lipid concentration) in 100 mM KCl, 10 mM KOAc, pH 5.0, and fluorescence measured (490 nm excitation, 520 nm emission) with a Fluoromax-3 spectrophotometer. Peptides of the BH3 domain were incubated with the BCl-xL(ΔC) 5 min prior to mixing with liposomes. AA1 was added to liposomes 1 min before adding the Bcl-xL(ΔC) protein. Samples for kinetic assays were analyzed in a thermostatted cuvette at 37° C. with constant stirring. Dose responses were measured in black quartz microplates (Hellma) at room temperature. Calcein release was expressed as percentage of maximum release with detergent lysis (0.1% Triton X-100).

[9] = target: T2, recombinant human Bcl-2ΔC22 (Homo sapiens, UniProt P10415); test: Antimycin A3 fluorescence binding and competition assay; details: 2 μM each, Bcl-2 3 μM, 7.5 minutes, 22.5° C.
T2 construct: poly-His (N); made in house
Method: In this assay, 0 to 5 μM antimycin A3 (Sigma Chemical Co., St. Louis, Mo.) was added to a physiological buffer (50 mM Tris-HCl pH 8.0, 0.2 M NaCl, 2 mM EDTA, 0.5% v/v glycerol) containing recombinant Bcl-2 or BCl-xL protein under conditions that permitted antimycin A3 to bind to the BH3-binding domain of Bcl-2 or BCl-xL (22.5° C. on a Hitachi F-2500 fluorescence spectrofluorimeter equipped with a thermostatted cell holder). […] The excitation wavelength was 335 nm, and the maximum emission wavelength for antimycin A3 was 428 nm with a slit width of 10 nm. The samples were mixed in a quartz cuvette and checked for inner filter effect over the concentration range of antimycin A3 used for this study. Blanks containing antimycin A3 at the same concentration as the experimental samples were used as controls in all measurements and necessary background corrections were made.
Recombinant human Bcl-2ΔC22 (a recombinant human Bcl-2 with a delection of 22 amino acid residue membrane anchor sequence from the carboxyl end) and mouse Bcl-xLΔC20 (a recombinant murine BCl-xL with a delection of the 20 amino acid residue membrane anchor sequence from the carboxyl end) fused with poly-His at the N-terminus were chromatographically purified to homogeneity. The concentrations of antimycin A3 and stock solutions of recombinant proteins were quantitated using an extinction coefficient of 7.24/mM/cm at 320 nm and by Bradford assay, respectively. The stoichiometric ratio of antimycin A3 and Bcl-2 producing the maximal change in antimycin A3 fluorescence was determined with incremental addition of antimycin A3 to a 1.98 μM solution of recombinant Bcl-2 in a volume of 2.1 milliliters. […] For peptide displacement experiments, a solution of 2 μM antimycin A3 and 3 μM Bcl-2 was allowed to reach binding equilibrium at 4° C. prior to fluorescence measurements. Native peptide corresponding to the BH3 domain of Bak (72-[…]87 (SEQ ID NO:1)) or a mutant peptide with a single amino acid change (Leu78Ala-BH3) was added to the solution and the fluorescence measurements were repeated. […]

[10] = system: TABX2S cells (over-expressing Bcl-xL); test: cells
Text: Briefly, a DNA fragment encoding the full-length mouse BCl-xL cDNA was isolated from the plasmid PBS.BCL-xL (Tzung et al., Am. J. Path. 150:1985-1995, 1997, incorporated herein by reference in its entirety) by digestion with the restriction endonuclease EcoRI. This EcoRI fragment was cloned into the EcoRI site of the mammalian expression vector pSFFV (Fuhlbrigge et al., Proc. Nat. Acad. Sci. USA 85:5649-5653, 1988) in both sense and antisense orientations, to form expression plasmids pSFFV.Bcl-xL(sense) or pSFFV.Bcl-xL(antisense), respectively. The tumorigenic murine hepatocyte cell line TAMH was transfected by lipofection (Lipofectamine, Life Technologies, Rockville, Md., according to the manufacturer's recommendations) with the plasmids pSFFV.neo (the control), pSFFV.Bcl-xL(sense) or pSFFV.Bcl-xL(antisense). […] Transfectants were selected for the acquisition of neomycin resistance by growing cells in the presence of 750 μg/ml of G418. Bulk transfectants were cloned by limiting dilution and individual clones were screened by immunoblot analysis to determine the level of BCl-xL protein expression as described below.
Selected transfectants were then tested for whole cell sensitivity to several apoptotic agents. Transfected cells were cultured to reach approximately 80% confluency prior to plating an equal number of cells from selected clones on 12-well tissue culture plates. The transplanted cells were treated with the following apoptotic agents: 5 μM doxorubicin for 48 hours; 5 μM cisplatin for 48 hours; or with 200 U/ml tumor necrosis factor (TNF) plus 1 μg/ml actinomycin D for 18 hours. Cell viability was determined by trypan blue dye exclusion. The percentage of viable cells was calculated by the number of viable cells (treated with a particular apoptogenic agent) divided by the number in the control group (untreated).
TABX2S cells and TABX1A cells were also examined for the effects of various mitochondrial inhibitors. […] Azide was diluted from an aqueous stock solution. […] Controls received an equivalent concentration of diluent. At various time points after drug treatment, cells were trypsinized, and cell viability was determined by trypan blue dye exclusion. The number of viable cells were counted and normalized to control group (i.e., % control=number of viable cells (treated group)/number of viable cells (control group)×100).

T2 sequence (P10415 1-217 limits assumed, stated change not applied): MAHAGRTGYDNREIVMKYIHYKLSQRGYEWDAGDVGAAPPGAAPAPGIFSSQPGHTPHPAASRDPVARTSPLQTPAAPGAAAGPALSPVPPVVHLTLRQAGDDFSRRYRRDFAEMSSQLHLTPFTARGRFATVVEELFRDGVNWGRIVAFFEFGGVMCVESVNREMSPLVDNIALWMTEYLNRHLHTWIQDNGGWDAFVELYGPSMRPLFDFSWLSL
T1 sequence (Q07817 1-211 limits assumed, stated change not applied): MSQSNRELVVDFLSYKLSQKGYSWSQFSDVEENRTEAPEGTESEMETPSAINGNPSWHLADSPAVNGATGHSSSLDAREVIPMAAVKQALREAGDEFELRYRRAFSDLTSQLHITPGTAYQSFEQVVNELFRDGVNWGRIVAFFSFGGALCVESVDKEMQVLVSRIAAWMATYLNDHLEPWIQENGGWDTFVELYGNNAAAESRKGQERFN

Structure (SMILES) | Protein binding, Rat (plasma proteins [1]) [%] | added amount remaining (Stability in plasma [2]; absence of NaF/EDTA, 500 ng/ml) [%] | stability (Stability in plasma [2]) | Protein binding, Human (plasma proteins [3]) [%] | Protein binding, Mouse (plasma proteins [4]) [%] | Protein binding, Dog (plasma proteins [5]) [%] | stability (Stability in plasma [6]; presence of NaF/EDTA) | amounts remaining after 4 weeks (Stability in plasma [6]; -80° C., presence of NaF/EDTA) [%] | amounts remaining after 4 weeks (Stability in plasma [6]; −80° C., absence of NaF/EDTA) [%] | GI50 (RPMI-8226 cells; 48 h, MTT) [µM] | stability (Stability in plasma [7]; 37° C., presence of NaF/EDTA) | decrease in concentration (Stability in plasma [7]; 37° C., presence of NaF/EDTA) [%] | amounts remaining after 4 weeks (Stability in plasma [7]; -80° C., presence of NaF/EDTA) [%] | amounts remaining after 4 weeks (Stability in plasma [7]; −80° C., absence of NaF/EDTA) [%] | stability (Stability in plasma [8]) | activity relative to 2-OMeA1, 2-OMeA2 and 2-OMeA3 (GI50) (RPMI-8226 cells) | effect on Bcl-xL pore-forming activity (Bcl-xL(ΔC) WT) | competition with antimycin A3 for Bcl-2 [9] | difference in sensitivity of the two cell lines ([10]; TABX2S vs TABX1A) | time until cell death apparent ([10]; after treatment, TABX2S and TABX1A cells)
CCCCCC[C@H]1C(=O)O[C@H](C)[C@H](NC(=O)c2cccc(NC=O)c2OC)C(=O)O[C@@H](C)[C@@H]1OC(=O)CCC [2-OMeA2, 2-methoxy antimycin A2] | 99.9 | 53 | generally stable | >99.9 | 99.7 | 99.9 | generally stable | 77 | 63 | 12.2 | generally stable | 18 | 83 | 70 | generally stable |  |  |  |  | 
CC[C@H]1C(=O)O[C@H](C)[C@H](NC(=O)c2cccc(NC=O)c2OC)C(=O)O[C@@H](C)[C@@H]1OC(=O)CC(C)C [2-OMeA5, 2-OMe antimycin A5] | >99.9 |  | stable | 99.6 | 99.7 | 99.1 | notable decreases in concentration | 63 | 27 |  | stable |  | 92 | 79 | notable decreases in concentration | approximately ⅓ |  |  |  | 
CCCC[C@H]1C(=O)O[C@H](C)[C@H](NC(=O)c2cccc(NC=O)c2OCC(=O)c2ccccc2)C(=O)O[C@@H](C)[C@@H]1OC(=O)CC(C)C [phenacyl ether antimycin A3] |  |  |  |  |  |  |  |  |  |  |  |  |  |  |  |  | no effect | did not displace antimycin A3 |  | 
CC(C)[C@@H]1NC(=O)[C@H](C)OC(=O)[C@@H](C(C)C)NC(=O)[C@@H](C(C)C)OC(=O)[C@H](C(C)C)NC(=O)[C@H](C)OC(=O)[C@@H](C(C)C)NC(=O)[C@@H](C(C)C)OC(=O)[C@H](C(C)C)NC(=O)[C@H](C)OC(=O)[C@@H](C(C)C)NC(=O)[C@@H](C(C)C)OC1=O [valinomycin] |  |  |  |  |  |  |  |  |  |  |  |  |  |  |  |  |  |  | no significant differences | six to eight
